Results reported in US6521268B2, “Antibacterial and anti-inflammatory compositions with Inula helenium L. extract and water soluble chitosan” (Jakwang Co., Ltd., priority 2001, dated 2003).

Test system: inflammation induced by methyl nicotinate, inner part of the upper arm
Assay: Anti-inflammatory effect test (anti-inflammation assay), chromameter "a" value
Assay type: in vivo, human
Description: The anti-inflammatory effect of the natural cell control carrier comprising 3:1 (wt/wt) water-soluble chitosan and elecampane extract according to the present invention was tested as follows. Twenty healthy male and female subjects with no experience of drug hypersensitivity or drug side effect were selected. Methyl nicotinate was used as an inflammation-inducing material. […] Firstly, the initial “a” value of the inner part of the upper arm was determined with a chromameter (Minolta, CR-300). Then, 1.0% aqueous solution of said composition and 0.1% indometacin aqueous solution were closely patched at the test part for 4 hr. After removing the patch, the test part was washed with pure water. After waiting for 1 hr for the temporary inflammation reaction to disappear, “a” value was measured again with the chromameter. After dropping 80 μL of methyl nicotinate diluted to 3 mM with pure water in a filter paper disk with 1 cm of diameter, it was applied to each test part for 1-2 min. After removing the filter paper disk, each test part was washed sufficiently with pure water. After 30 min, “a” value was measured with the chromameter. The anti-inflammatory effect of the natural cell control carrier according to the present invention, indometacin and methyl nicotinate was calculated from the “a” values.

With `COc1ccc2c(c1)c(CC(=O)O)c(C)n2C(=O)c1ccc(Cl)cc1` [indometacin] the “Anti-Inflammatory Effect (%)” value (calculated from "a" values, 1.0% carrier or 0.1% indometacin aqueous solution) was 41.14% and the “"a" Value (n = 20)” value (chromameter, 30 min after 3 mM methyl nicotinate, 4 hr patch pre-treatment (1.0% carrier or 0.1% indometacin aqueous solution)) was 6.38.
